Assay results taken from patent publication US20070066580A1, “Novel aldosterone antagonists and uses thereof” (Recordati Ireland Limited, priority 2005, published 2007).

biological target: T1, MR (Homo sapiens, UniProt P08235); test: not given; settings: cited from earlier work
T1 sequence (P08235 1-984): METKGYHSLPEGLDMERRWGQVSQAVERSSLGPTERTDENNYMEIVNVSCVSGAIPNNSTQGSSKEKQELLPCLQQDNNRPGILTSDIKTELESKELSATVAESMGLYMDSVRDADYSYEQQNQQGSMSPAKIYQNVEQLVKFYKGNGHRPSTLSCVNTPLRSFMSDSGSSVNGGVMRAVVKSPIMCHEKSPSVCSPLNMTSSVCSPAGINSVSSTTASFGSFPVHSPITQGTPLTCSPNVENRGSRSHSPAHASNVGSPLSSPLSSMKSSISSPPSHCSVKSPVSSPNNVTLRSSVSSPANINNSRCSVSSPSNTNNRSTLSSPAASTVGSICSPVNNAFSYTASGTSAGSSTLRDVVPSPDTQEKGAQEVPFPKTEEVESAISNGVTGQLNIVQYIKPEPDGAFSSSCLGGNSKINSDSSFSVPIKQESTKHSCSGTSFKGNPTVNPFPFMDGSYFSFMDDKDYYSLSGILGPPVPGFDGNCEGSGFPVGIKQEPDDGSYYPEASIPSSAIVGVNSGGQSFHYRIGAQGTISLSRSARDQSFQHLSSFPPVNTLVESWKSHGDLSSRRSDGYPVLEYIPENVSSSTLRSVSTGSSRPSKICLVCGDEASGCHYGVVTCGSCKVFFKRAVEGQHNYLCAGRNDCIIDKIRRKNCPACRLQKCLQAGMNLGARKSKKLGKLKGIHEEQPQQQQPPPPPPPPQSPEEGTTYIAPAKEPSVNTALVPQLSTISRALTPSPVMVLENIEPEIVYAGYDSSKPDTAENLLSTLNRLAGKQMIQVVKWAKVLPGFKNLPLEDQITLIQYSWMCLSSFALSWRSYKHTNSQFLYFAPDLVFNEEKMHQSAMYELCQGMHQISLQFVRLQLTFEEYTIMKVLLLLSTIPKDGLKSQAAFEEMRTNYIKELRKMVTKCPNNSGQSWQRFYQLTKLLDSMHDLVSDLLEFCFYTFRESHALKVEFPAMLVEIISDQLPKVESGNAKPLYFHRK

Row | Compound | antimineralocorticoid potency, times more potent than spironolactone
1 | C[C@]12CCC(=O)C=C1[C@@H]1C[C@@H]1[C@H]1[C@@H]3[C@@H]4C[C@@H]4[C@@]4(CCC(=O)O4)[C@@]3(C)CC[C@@H]12 | approximately 7.5 times

biological target: T2, ligand binding domain of the human mineralocorticoid receptor (hMR LBD) (Homo sapiens, UniProt P08235); test: Mineralocorticoid receptor (MR) in vitro competitive binding assay, [3H]aldosterone displacement; settings: IR^TOTAL = sum of IR^AR/MR, IR^ER/MR, IR^GR/MR, IR^PR/MR
T2 construct: made in house; host or cells: Sf9 insect cells (baculovirus, pFastBac)
T2 sequence (P08235 729-984): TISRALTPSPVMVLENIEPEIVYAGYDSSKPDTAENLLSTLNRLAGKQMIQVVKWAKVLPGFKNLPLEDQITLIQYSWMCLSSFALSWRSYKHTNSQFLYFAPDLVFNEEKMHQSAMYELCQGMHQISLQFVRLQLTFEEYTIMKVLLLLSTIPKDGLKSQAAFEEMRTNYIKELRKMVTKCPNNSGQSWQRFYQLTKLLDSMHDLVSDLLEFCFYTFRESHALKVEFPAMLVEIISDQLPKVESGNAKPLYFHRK
Protocol: Mineralocorticoid receptor (MR) binding assay: Spodoptera furgiperda (Sf9) insect cells (ATCC accession number CRL-1711) were maintained in culture in EX-CELL™ 420 serum free medium (JRH Biosciences, Inc.) at 27° C.
A recombinant baculovirus containing nucleotide sequences encoding the ligand binding domain of the human mineralocorticoid receptor (hMR) cloned into the pFastBac™ vector was generated using the Bac-to-Bac® Baculovirus Expression System Kit (Invitrogen) following the manufacturer's instructions. This recombinant baculovirus contains nucleotides 2401 through 3168 (SEQ ID NO: 13) of hMR, providing for expression of the ligand binding domain (LBD), amino acid residues 729-984 (SEQ ID NO: 14), of hMR (hMR LBD). Cultured Sf9 insect cells were transfected with this recombinant baculovirus following the manufacturer's instructions.
For the binding assay, a crude lysate of the hMR LBD-expressing insect cells was prepared. The crude lysate was diluted 12.5-fold with binding buffer (20 mM Tris-HCl pH 7.4, 1 mM EDTA, 1 mM dithiothreitol, 20 mM sodium tungstate, 50 mM KCl and 10% glycerol).
For the negative control sample, the diluted lysate was incubated with a 10 nM final concentration of the radioligand [1,2,6,7-^3H] aldosterone (Amersham Biosciences, catalogue # 434) for 3.5 h at 4° C. For test compounds and the positive control sample, the diluted lysate was incubated with various concentrations of test compound or with a 20 μM final concentration of spironolactone (Sigma, S-3378) as a reference compound for 45 min on ice, and was then incubated with a 10 nM final concentration of [1,2,6,7-^3H] aldosterone for 3.5 h at 4° C.
Using a CellHarvester (PerkinElmer, formerly Packard Biosciences), receptor/ligand complexes were retained on 96-well GF/B filters (PerkinElmer, formerly Packard Biosciences) while free radioligand passed through the filters. Scintillation counting of GF/B filter plates was performed using a TopCount NXT (PerkinElmer, formerly Packard Biosciences) to quantitate the amount of [1,2,6,7-^3H] aldosterone bound to the hMR LBD.
The IC50 of a test compound was determined from the concentration of test compound giving half-maximal displacement as obtained by nonlinear least-squares curve fitting to a one-site binding sigmoidal model using Prism 3.0 (Graph Pad Software, Inc., San Diego, US). The calculated IC50 values represent the average values calculated from the results of 1-3 experiments carried out in duplicate.
IC50 and inhibitory ratio calculations: To provide a measure of the potency of each test compound as an antagonist of MR, the IC50 of each test compound (IC50^Test) for ligand binding to MR and the IC50 of the known MR antagonists eplerenone (IC50^Ep) and spironolactone (IC50^Sp) for ligand binding to MR were used to calculate an IC50 ratio (RIC50) according to the following equations: RIC50^Ep/Test=IC50^Ep/IC50^Test and RIC50^Sp/Test=IC50^Sp/IC50^Test.
These individual inhibitory ratios were used to calculate a total inhibitory ratio (IR^TOTAL) according to the following equation: IR^TOTAL=IR^AR/MR+IR^ER/MR+IR^GR/MR+IR^PR/MR. B. Results and Discussion

Row | Compound | IR^TOTAL compared with the IR^TOTAL for eplerenone | IR^TOTAL compared with the IR^TOTAL for spironolactone
2 | CC(=O)S[C@@H]1CC2=CC(=O)CC[C@]2(C)C2=CC[C@@]3(C)C(CC[C@@]34CCC(=O)O4)C21 (some centres unmarked) [Example 11] | at least an order of magnitude greater than the IR^TOTAL for eplerenone | greater than the IR^TOTAL for spironolactone
3 | CC(=O)S[C@@H]1CC2=CC(=O)CC[C@]2(C)[C@@]23O[C@@H]2C[C@@]2(C)C(CC[C@@]24COC(=O)O4)C13 (some centres unmarked) [Example 46] | at least an order of magnitude greater than the IR^TOTAL for eplerenone | greater than the IR^TOTAL for spironolactone
4 | CO/N=C/[C@@H]1CC2=CC(=O)CC[C@]2(C)[C@@]23O[C@@H]2C[C@@]2(C)C(CC[C@@]24CCC(=O)O4)C13 (some centres unmarked) [Example 52] |  | greater than the IR^TOTAL for spironolactone
5 | CCC[C@@H]1CC2=CC(=O)CC[C@]2(C)C2=CC[C@@]3(C)C(C21)[C@@H]1C[C@@H]1[C@@]31CCC(=O)O1 (some centres unmarked) [Example 70] | at least an order of magnitude greater than the IR^TOTAL for eplerenone | at least an order of magnitude greater than the IR^TOTAL for spironolactone
6 | C[C@]12CCC(=O)C=C1CCC1C2=CC[C@@]2(C)C1[C@@H]1C[C@@H]1[C@@]21COC(=O)O1 (some centres unmarked) [Example 75] | at least an order of magnitude greater than the IR^TOTAL for eplerenone | at least an order of magnitude greater than the IR^TOTAL for spironolactone
7 | C[C@]12CCC(=O)C=C1C[C@@H](C#N)C1C2=CC[C@@]2(C)C1[C@@H]1C[C@@H]1[C@@]21COC(=O)O1 (some centres unmarked) [Example 76] | at least an order of magnitude greater than the IR^TOTAL for eplerenone | at least an order of magnitude greater than the IR^TOTAL for spironolactone

biological target: T3, GAL4 DBD-hMR LBD fusion protein (Homo sapiens, UniProt P08235); test: Cell-based luciferase assay, agonist mode (CV-1 cells); settings: 10 μM of compound
T3 construct: expressed in transfected cells; host or cells: CV-1 cells (African green monkey kidney), transient co-transfection with pCMX-GAL4-based vector and Galp3TKLuc reporter
T3 sequence (P08235 with tags, fused parts or gaps limits assumed): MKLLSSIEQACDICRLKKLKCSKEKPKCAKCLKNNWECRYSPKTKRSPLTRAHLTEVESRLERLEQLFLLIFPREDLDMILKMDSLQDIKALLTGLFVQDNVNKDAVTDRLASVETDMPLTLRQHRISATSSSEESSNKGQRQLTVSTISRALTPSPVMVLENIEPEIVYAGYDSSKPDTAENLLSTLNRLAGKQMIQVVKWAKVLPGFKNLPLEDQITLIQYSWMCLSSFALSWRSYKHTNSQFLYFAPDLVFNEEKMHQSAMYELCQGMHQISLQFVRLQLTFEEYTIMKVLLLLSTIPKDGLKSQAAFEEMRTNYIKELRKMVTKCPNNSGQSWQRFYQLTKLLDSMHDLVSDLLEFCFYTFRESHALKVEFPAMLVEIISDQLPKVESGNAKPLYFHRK
Description: GAL4 DBD-hMR LBD fusion protein expression vector: A pCMX-GAL4-based vector was used for the expression of a fusion protein composed of the amino acids 1-147 of the DNA binding domain of Saccharomyces cerevisiae GAL4 (GAL4 DBD) (SEQ ID NO: 16) and amino acid residues 729-984 of the ligand binding domain of human mineralocorticoid receptor (hMR LBD) (SEQ ID NO: 14). The expression vector contained an expression cassette of the nucleotide sequence for the GAL4 DBD (See SEQ ID NO: 19) ligated to nucleotides 2401 through 3168 of the human mineralocorticoid (hMR) receptor (SEQ ID NO: 13).
In vitro cell culture: CV-1 cells (African green monkey kidney cell line, ATCC accession number CCL-70) were maintained in culture in 90% DMEM medium supplemented by 9% FCS and 1% Penicillin-Streptomycin-L-Glutamine at 37° C. under 8.5% CO2.
These cells were transiently co-transfected with the GAL4 DBD-hMR LBD fusion protein expression vector and the Galp3TKLuc reporter gene vector using the FuGENE 6 Transfection Reagent (Roche) according to the manufacturer's instructions.
Agonist assay: As a positive control, aldosterone (Acros Organics, catalogue # 215360050) was used at a concentration of 100 nM. The negative control sample was 90% DMEM medium supplemented by 9% charcoal-treated FCS and 1% Penicillin-Streptomycin-L-Glutamine containing 0.2% DMSO plus 0.02% ethanol. Positive control, negative control, or 10 μM final concentration of test compound was added to the cells and incubated for 24 hours at 37° C. under 8.5% CO2 before the Luciferase substrate (Promega, catalogue number #E2620) was added. After an incubation period of 5 min at RT, luminescence signals were read on a microplate reader (Molecular Devices/LJL Biosystems). Negative and positive controls were defined as 0% and 100% agonism, respectively. The agonistic potency of test compounds is given in % and was normalized to the positive and negative controls.

Row | Compound | potency for activation of MR relative to aldosterone
8 | C=CCC[C@@H]1CC2=CC(=O)CC[C@]2(C)C2=CC[C@@]3(C)C(CC[C@@]34CCC(=O)O4)C21 (some centres unmarked) [Example 8] | at least three orders of magnitude less potent than aldosterone
9 | CCC[C@@H]1CC2=CC(=O)CC[C@]2(C)C2=CC[C@@]3(C)C(CC[C@@]34CCC(=O)O4)C21 (some centres unmarked) [Example 9] | at least three orders of magnitude less potent than aldosterone
10 | CCC[C@@H]1CC2=CC(=O)CC[C@]2(C)[C@@]23O[C@@H]2C[C@@]2(C)C(CC[C@@]24CCC(=O)O4)C13 (some centres unmarked) [Example 10] | at least three orders of magnitude less potent than aldosterone
11 | CCCS[C@@H]1CC2=CC(=O)CC[C@]2(C)[C@@]23O[C@@H]2C[C@@]2(C)C(CC[C@@]24CCC(=O)O4)C13 (some centres unmarked) [Example 12] | at least three orders of magnitude less potent than aldosterone
12 | C[C@]12CCC(=O)C=C1C[C@@H](SCC(F)(F)F)C1C2=CC[C@@]2(C)C1CC[C@@]21CCC(=O)O1 (some centres unmarked) [Example 18] | at least three orders of magnitude less potent than aldosterone
13 | C[C@@H]1CC2=CC(=O)CC[C@]2(C)C2=CC[C@@]3(C)C(CC[C@@]34CCC(=O)O4)C21 (some centres unmarked) [Example 26] | at least three orders of magnitude less potent than aldosterone
14 | CO/N=C/[C@@H]1CC2=CC(=O)CC[C@]2(C)C2=CC[C@@]3(C)C(CC[C@@]34CCC(=O)O4)C21 (some centres unmarked) [Example 34] | at least three orders of magnitude less potent than aldosterone
15 | C[C@]12CCC(=O)C=C1CCC1C3CC[C@@]4(COC(=O)O4)[C@@]3(C)C[C@H]3O[C@@]132 (some centres unmarked) [Example 41] | at least three orders of magnitude less potent than aldosterone
16 | CO/N=C/[C@@H]1CC2=CC(=O)CC[C@]2(C)[C@@]23O[C@@H]2C[C@@]2(C)C(CC[C@@]24CCC(=O)O4)C13 (some centres unmarked) [Example 52] | at least three orders of magnitude less potent than aldosterone
17 | CCC[C@@H]1CC2=CC(=O)CC[C@]2(C)C2=CC[C@@]3(C)C(C21)[C@@H]1C[C@@H]1[C@@]31CCC(=O)O1 (some centres unmarked) [Example 70] | at least three orders of magnitude less potent than aldosterone
18 | CCC[C@@H]1CC2=CC(=O)CC[C@]2(C)[C@@]23O[C@@H]2C[C@@]2(C)C(C13)[C@@H]1C[C@@H]1[C@@]21CCC(=O)O1 (some centres unmarked) [Example 71] | at least three orders of magnitude less potent than aldosterone
